Test [1] addresses T1, Human recombinant PDE2A (hPDE2A) (Homo sapiens, UniProt O00408).
T1 construct: His tag (inferred from metal chelate purification); made in house; host or cells: Sf9 insect cells (baculovirus)
Kind of test: In vitro assay PDE2A (SPA, 3H-cGMP hydrolysis). It counts as biochemical. Conditions: for Emax: read-out: hPDE2A Emax; for IC50: read-out: hPDE2A pIC50 (converted); for pIC50: hPDE2A pIC50.

Test [2] addresses T2, Human recombinant PDE3A (hPDE3A) (Homo sapiens, UniProt Q14432).
T2 construct: purchased Scottish Biomedical; host or cells: Sf9 insect cells
Put plainly: In vitro assay PDE3A (SPA, 3H-cAMP hydrolysis).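 On Emax: the method names PDE3A and the table heading PDE3B.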 It counts as biochemical. The following applies: for IC50 / pIC50: hPDE3B pIC50; for IC50: read-out: pIC50 (converted); for Emax: read-out: hPDE3B Emax, read-out: Emax. In short, it runs like this: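 Radiometric SPA measuring [3H]-cAMP hydrolysis (0.4 μM cAMP, 2.4 μCi/ml) over 60 min at room temperature, in Tris pH 7.8 buffer with MgCl2 and EGTA, 1% DMSO. Enzyme: recombinant human brain PDE3A expressed in Sf9 cells, used as partially purified lysate. Counts compared with enzyme-free blanks and vehicle controls.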

For test [3], the target named is T3, Human recombinant PDE10A (hPDE10A) (Homo sapiens, UniProt Q9Y233).
T3 construct: His tag (inferred from metal chelate purification); made in house; host or cells: Sf9 insect cells (baculovirus)
Put plainly: In vitro assay PDE10A, human clone (SPA, 3H-cAMP hydrolysis). It counts as biochemical. Conditions: for Emax / IC50: human clone by default (no (r) mark); for Emax: read-out: hPDE10A2 or rPDE10A2 Emax; for IC50: read-out: hPDE10A2 or rPDE10A2 pIC50 (converted); for pIC50: hPDE10A2 or rPDE10A2 pIC50, human clone by default (no (r) mark). The procedure, abridged:
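Hydrolysis of 3H-cAMP (60 nM cAMP, 0.008 μCi tracer) proceeded for 60 min at room temperature, with the product detected by SPA bead scintillation counting. The enzyme was hPDE10A from baculovirus-infected Sf9 cells in Tris pH 7.8 buffer with MgCl2 and EGTA, and compounds were at 1% DMSO final. Blanks lacked enzyme.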

For test [4], the target named is T4, PDE2A (Rattus norvegicus, UniProt Q01062).
T4 construct: Twenty μm-thick striatal sections were cut; from tissue; host or cells: rat brain, striatal sections
T4 sequence (Q01062 1-928): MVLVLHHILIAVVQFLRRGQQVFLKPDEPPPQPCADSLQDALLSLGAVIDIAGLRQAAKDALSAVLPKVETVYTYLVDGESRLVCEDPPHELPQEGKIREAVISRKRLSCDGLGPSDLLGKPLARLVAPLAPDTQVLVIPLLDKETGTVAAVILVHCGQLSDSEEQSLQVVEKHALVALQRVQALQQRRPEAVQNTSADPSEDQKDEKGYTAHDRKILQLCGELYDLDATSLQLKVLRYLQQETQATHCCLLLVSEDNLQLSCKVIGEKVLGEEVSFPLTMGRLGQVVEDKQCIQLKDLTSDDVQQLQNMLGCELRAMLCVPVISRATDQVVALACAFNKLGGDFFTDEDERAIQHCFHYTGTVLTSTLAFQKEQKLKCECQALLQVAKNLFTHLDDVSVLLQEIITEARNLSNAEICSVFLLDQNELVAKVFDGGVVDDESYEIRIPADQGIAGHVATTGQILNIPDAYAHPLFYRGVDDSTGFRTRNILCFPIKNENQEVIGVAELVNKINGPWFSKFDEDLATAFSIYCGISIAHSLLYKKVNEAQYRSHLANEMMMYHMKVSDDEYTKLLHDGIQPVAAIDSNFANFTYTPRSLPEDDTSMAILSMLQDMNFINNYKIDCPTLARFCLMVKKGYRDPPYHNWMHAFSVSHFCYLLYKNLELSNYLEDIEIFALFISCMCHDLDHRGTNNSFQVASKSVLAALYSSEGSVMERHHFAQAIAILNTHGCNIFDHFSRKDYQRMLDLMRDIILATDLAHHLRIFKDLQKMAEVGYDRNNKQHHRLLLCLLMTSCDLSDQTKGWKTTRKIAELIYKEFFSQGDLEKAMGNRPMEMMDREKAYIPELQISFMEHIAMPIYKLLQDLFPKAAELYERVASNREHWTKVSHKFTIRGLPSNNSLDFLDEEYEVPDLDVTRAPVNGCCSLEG
Put plainly: PDE2 occupancy by test compounds, ex-vivo autoradiography with [3H]B-17a. The following applies: 10 mg/kg, route PO (oral), percentage receptor occupancy, ex-vivo autoradiography, striatum. It counts as in vivo, Male Wistar rats.

What is called Emax is the greatest response seen or fitted, relative to the assay's reference. What is called pIC50 is the IC50 on a negative log10 scale, so that one unit is a factor of ten.

pIC50: −log10 of the molar value. Read-outs that look alike come from different tables or passages of the source. Some results are limits rather than exact numbers.

T1 sequence (O00408 whole entry): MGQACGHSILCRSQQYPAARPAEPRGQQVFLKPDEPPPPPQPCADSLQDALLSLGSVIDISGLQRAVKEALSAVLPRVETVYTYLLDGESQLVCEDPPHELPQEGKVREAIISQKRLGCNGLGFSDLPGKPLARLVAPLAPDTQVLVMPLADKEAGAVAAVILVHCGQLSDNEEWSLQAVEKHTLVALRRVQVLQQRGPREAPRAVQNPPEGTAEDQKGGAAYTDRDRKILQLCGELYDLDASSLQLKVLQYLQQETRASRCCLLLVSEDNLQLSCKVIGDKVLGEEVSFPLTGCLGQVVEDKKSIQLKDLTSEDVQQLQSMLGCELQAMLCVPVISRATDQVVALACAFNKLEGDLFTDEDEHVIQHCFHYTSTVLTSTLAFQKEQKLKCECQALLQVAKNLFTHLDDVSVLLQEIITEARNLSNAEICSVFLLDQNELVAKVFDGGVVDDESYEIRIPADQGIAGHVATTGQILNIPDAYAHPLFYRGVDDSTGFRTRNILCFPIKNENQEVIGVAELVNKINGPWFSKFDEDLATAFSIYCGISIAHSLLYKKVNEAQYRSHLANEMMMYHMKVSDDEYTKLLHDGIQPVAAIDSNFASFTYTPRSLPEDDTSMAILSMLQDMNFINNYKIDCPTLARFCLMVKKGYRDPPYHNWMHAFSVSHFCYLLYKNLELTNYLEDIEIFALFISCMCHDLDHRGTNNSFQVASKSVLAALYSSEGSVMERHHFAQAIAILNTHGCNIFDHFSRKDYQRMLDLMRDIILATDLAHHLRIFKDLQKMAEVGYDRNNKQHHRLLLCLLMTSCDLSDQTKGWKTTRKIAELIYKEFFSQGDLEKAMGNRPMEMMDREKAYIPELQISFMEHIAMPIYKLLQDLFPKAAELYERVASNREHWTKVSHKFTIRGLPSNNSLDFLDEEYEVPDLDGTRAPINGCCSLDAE
T2 sequence (Q14432 whole entry): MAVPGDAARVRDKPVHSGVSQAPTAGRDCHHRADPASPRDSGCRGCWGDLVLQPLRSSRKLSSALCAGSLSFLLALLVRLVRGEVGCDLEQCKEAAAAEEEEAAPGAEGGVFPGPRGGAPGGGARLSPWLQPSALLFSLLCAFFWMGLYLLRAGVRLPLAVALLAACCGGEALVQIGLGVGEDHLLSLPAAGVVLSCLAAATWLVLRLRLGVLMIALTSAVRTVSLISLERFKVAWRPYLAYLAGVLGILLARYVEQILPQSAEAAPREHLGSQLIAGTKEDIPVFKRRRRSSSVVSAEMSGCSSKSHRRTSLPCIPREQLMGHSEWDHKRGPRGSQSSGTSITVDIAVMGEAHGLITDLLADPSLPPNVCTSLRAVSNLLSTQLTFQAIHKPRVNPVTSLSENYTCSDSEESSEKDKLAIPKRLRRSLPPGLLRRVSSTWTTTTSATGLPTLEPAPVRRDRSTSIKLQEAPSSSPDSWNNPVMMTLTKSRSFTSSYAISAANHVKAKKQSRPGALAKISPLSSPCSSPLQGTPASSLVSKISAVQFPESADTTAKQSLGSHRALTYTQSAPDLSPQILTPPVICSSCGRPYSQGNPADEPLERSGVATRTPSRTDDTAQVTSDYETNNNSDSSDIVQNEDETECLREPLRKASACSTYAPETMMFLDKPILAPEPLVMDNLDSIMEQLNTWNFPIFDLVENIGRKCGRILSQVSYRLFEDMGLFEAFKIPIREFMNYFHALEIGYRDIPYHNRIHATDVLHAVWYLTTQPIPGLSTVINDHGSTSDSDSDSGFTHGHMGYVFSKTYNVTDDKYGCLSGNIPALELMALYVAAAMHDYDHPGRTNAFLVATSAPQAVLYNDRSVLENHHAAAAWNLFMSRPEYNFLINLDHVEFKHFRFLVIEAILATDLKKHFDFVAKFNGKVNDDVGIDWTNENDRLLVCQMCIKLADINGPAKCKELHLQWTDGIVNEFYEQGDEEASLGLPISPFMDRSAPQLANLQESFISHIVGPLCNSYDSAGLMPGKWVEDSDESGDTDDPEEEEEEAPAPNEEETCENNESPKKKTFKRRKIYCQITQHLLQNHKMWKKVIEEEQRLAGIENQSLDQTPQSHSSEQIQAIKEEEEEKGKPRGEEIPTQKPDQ
T3 sequence (Q9Y233 267-1055): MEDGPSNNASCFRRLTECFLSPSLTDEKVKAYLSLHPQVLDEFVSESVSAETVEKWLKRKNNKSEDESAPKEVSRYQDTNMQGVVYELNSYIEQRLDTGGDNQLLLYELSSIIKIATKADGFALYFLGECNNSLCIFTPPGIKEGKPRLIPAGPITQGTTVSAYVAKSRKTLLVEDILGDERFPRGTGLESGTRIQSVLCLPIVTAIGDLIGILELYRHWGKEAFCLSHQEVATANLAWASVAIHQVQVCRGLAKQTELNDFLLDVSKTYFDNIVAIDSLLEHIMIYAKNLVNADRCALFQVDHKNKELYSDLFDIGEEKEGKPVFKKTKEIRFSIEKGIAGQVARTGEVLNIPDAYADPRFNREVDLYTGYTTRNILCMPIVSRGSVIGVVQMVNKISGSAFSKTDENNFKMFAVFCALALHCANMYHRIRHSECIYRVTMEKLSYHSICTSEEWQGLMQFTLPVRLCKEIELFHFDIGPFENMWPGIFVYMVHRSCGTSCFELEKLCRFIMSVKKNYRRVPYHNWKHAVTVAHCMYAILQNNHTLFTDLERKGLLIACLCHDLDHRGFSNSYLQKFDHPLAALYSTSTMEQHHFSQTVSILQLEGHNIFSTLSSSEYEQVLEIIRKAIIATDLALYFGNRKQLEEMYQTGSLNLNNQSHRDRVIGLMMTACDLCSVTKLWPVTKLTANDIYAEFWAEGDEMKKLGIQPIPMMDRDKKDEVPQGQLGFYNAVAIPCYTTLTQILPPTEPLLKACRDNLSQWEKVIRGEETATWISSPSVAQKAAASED

Consider `COc1cc(C(=O)N2[C@H]3CC[C@H](c4cc(C(F)F)nc5ncnn45)[C@@H]2CC3)cc(C)n1` [Compound 290], for which the Emax was found to be 98% in test [1], 53% in test [2] and 89% in test [3]. For the same compound, the IC50 in test [1] was 5.89 nM; in test [2], 6920 nM; in test [3], 1410 nM. For the same compound, in test [4], the receptor occupancy at 10 mg/kg is -3%.
For `O=C(c1ccc2cccn2c1)N1[C@H]2CC[C@H](c3cc(C(F)F)nc4ncnn34)[C@@H]1CC2` [Compound 291], the Emax in test [1] amounted to 101%; in test [2], 86%; in test [3], 95%. Further, the IC50 in test [1] is 2.69 nM; in test [2] it was 2630 nM; in test [3] it was 513 nM. The receptor occupancy at 10 mg/kg in test [4] is 38%.
Take `COc1c(C)cc(C(=O)N2[C@H]3CC[C@H](c4cc(C(F)F)nc5ncnn45)[C@@H]2CC3)cc1C` [Compound 292]: the figures for the Emax in test [1], in test [2] and in test [3] were 100%, 73% and 94%, respectively. In addition, the IC50 is 2.51 nM in test [1], 4680 nM in test [2] and 724 nM in test [3]. In test [4], the receptor occupancy at 10 mg/kg came out at 23%.
Take `Cc1cc(C(=O)N2[C@H]3CC[C@H](c4cc(C(F)F)nc5ncnn45)[C@@H]2CC3)cc(OC(F)F)n1` [Compound 293]: the Emax in test [1] came out at 100%; in test [2], 80%; in test [3] it was 90%. Moreover, the IC50 in test [1] is 11.2 nM; in test [2] it was 3470 nM; in test [3], 1020 nM. The receptor occupancy at 10 mg/kg in test [4] stood at 6%.
On to `Cc1cc(C(=O)N2[C@H]3CC[C@H](c4cc(C(F)F)nc5ncnn45)[C@@H]2CC3)cc(C(F)F)n1` [Compound 294], for which the values for the maximal response (Emax) in test [1], in test [2] and in test [3] were 99%, 14% and 81%, respectively. Also, the values for the IC50 in test [1], in test [2] and in test [3] were 10.7 nM, over 10000 nM and 2090 nM, respectively. In addition, the receptor occupancy at 10 mg/kg in test [4] stood at 17%.
`COc1cccc2c1OCC(C(=O)N1[C@H]3CC[C@H](c4cc(C(F)F)nc5ncnn45)[C@@H]1CC3)=C2` [Compound 296]: the figures for the Emax in test [1], in test [2] and in test [3] were 99%, 93% and 100%, respectively. Further, the IC50 was 0.457 nM in test [1], 794 nM in test [2] and 120 nM in test [3]. For the same compound, the receptor occupancy at 10 mg/kg in test [4] amounted to 88%.
Consider `Cn1cc(C(=O)N2[C@H]3CC[C@H](c4cc(C(F)F)nc5ncnn45)[C@@H]2CC3)c2ccccc21` [Compound 297], for which the Emax in test [1] came to 97%; in test [2], 62%; in test [3], 96%. The IC50 was 2.34 nM in test [1], 5890 nM in test [2] and 589 nM in test [3]. Besides, in test [4], the receptor occupancy at 10 mg/kg was -2%.
Regarding `Cc1cc(C(=O)N2[C@H]3CC[C@H](c4cc(C(F)F)nc5ncnn45)[C@@H]2CC3)cc(C)c1C#N` [Compound 299], the results for the maximum response (Emax) in test [1], in test [2] and in test [3] were 99%, 40% and 84%, respectively. For the same compound, the IC50 in test [1] is 7.76 nM; in test [2], over 10000 nM; in test [3] it was 2140 nM. The receptor occupancy at 10 mg/kg in test [4] came to 31%.
Take `Cn1c(C(=O)N2[C@H]3CC[C@H](c4cc(C(F)F)nc5ncnn45)[C@@H]2CC3)cc2ccccc21` [Compound 300]: the Emax in test [1] was determined as 100%; in test [2] it was 88%; in test [3], 80%. Moreover, the values for the IC50 in test [1], in test [2] and in test [3] were 6.46 nM, 2000 nM and 2880 nM, respectively. The receptor occupancy at 10 mg/kg in test [4] was -11%.
For `COc1cc(C(=O)N2[C@H]3CC[C@H](c4cc(C(F)F)nc5ncnn45)[C@@H]2CC3)cc(OC)n1` [Compound 301], the results for the Emax in test [1], in test [2] and in test [3] were 100%, 62% and 89%, respectively. Besides, the IC50 in test [1] is 8.13 nM; in test [2] it was 6310 nM; in test [3], 1260 nM. Further, the receptor occupancy at 10 mg/kg in test [4] is -7%.
For the compound `Cc1cc(C)cc(C(=O)N2[C@H]3CC[C@H](c4cc(C(F)F)nc5ncnn45)[C@@H]2CC3)c1` [Compound 302], the figures for the Emax in test [1], in test [2] and in test [3] were 101%, 59% and 93%, respectively. The IC50 is 6.46 nM in test [1], 7940 nM in test [2] and 891 nM in test [3]. Moreover, the receptor occupancy at 10 mg/kg in test [4] is 1%.
For the compound `Cc1nc2ccc(C(=O)N3[C@H]4CC[C@H](c5cc(C(F)F)nc6ncnn56)[C@@H]3CC4)cc2o1` [Compound 303], the Emax in test [1] was found to be 99%; in test [2], 57%; in test [3], 95%. For the same compound, the IC50 in test [1] was 7.08 nM; in test [2], 6610 nM; in test [3], 537 nM. Besides, in test [4], the receptor occupancy at 10 mg/kg is 17%.
Consider `Cc1cc2ccc(C(=O)N3[C@H]4CC[C@H](c5cc(C(F)F)nc6ncnn56)[C@@H]3CC4)cn2c1` [Compound 307], for which the figures for the pIC50 in test [1], in test [2] and in test [3] were 8.04, 5.83 and 6.22, respectively. The Emax in test [1] was 99%; in test [2] it was 88%; in test [3], 97%. The receptor occupancy at 10 mg/kg in test [4] amounted to 8%.
As to `O=C(c1ccc2ccccc2n1)N1[C@H]2CC[C@H](c3cc(C(F)F)nc4ncnn34)[C@@H]1CC2` [Compound 308], the pIC50 in test [1] was 7.76; in test [2], 5.34; in test [3] it was 5.17. Moreover, the Emax amounted to 98% in test [1], 72% in test [2] and 66% in test [3]. For the same compound, in test [4], the receptor occupancy at 10 mg/kg stood at 18%.
As to `O=C(c1cnc2c(F)cccc2c1)N1[C@H]2CC[C@H](c3cc(C(F)F)nc4ncnn34)[C@@H]1CC2` [Compound 309], the Emax in test [1] turned out to be 100%; in test [2] it was 53%; in test [3], 86%. Also, the IC50 was 2.95 nM in test [1], 7590 nM in test [2] and 1510 nM in test [3]. For the same compound, the receptor occupancy at 10 mg/kg in test [4] amounted to 12%.
As to `O=C(c1ccc2ncccc2c1)N1[C@H]2CC[C@H](c3cc(C(F)F)nc4ncnn34)[C@@H]1CC2` [Compound 311], the Emax was found to be 96% in test [1], 62% in test [2] and 96% in test [3]. Besides, the IC50 in test [1] is 1.1 nM; in test [2] it was 7410 nM; in test [3], 427 nM. The receptor occupancy at 10 mg/kg in test [4] was -1%.
With `O=C(c1ccc2ncc(F)cc2c1)N1[C@H]2CC[C@H](c3cc(C(F)F)nc4ncnn34)[C@@H]1CC2` [Compound 312], the Emax is 99% in test [1], 37% in test [2] and 93% in test [3]. Besides, the IC50 in test [1] is 21.9 nM; in test [2], over 10000 nM; in test [3] it was 617 nM. The receptor occupancy at 10 mg/kg in test [4] is -16%.
On to `O=C(c1cnc2ccccc2c1)N1[C@H]2CC[C@H](c3cc(C(F)F)nc4ncnn34)[C@@H]1CC2` [Compound 313], for which the Emax in test [1] is 97%; in test [2], 61%; in test [3], 86%. For the same compound, the IC50 in test [1] was 1.35 nM; in test [2] it was 6030 nM; in test [3], 1230 nM. Also, the receptor occupancy at 10 mg/kg in test [4] was 28%.

Values taken from patent US10947242B2, “[1,2,4]triazolo[1,5and#8208;A]pyrimidine compounds as PDE2 inhibitors” (Janssen Pharmaceutica NV, priority 2016, dated 2021).
